Experimental data from paper PMC9454848, “BMS-986158, a Small Molecule Inhibitor of the Bromodomain and Extraterminal Domain Proteins, in Patients with Selected Advanced Solid Tumors: Results from a Phase 1/2a Trial” (Cancers, 2022).
Values joined by “and” are separate entries in the source; they are usually repeats but may differ in a detail not shown here. Equal values may be shown once. “Also recorded” adds a separate entry of the source. Marks after values point to notes of the source that are not given here.

Experiments:
[1] = tested on: advanced solid tumors; test: Preliminary antitumor activity (RECIST 1.1 best overall response, ORR, PFS, OS); type: in vivo, human
Procedure: Best overall response was defined as a complete response (CR), partial response (PR), stable disease (SD), or progressive disease per RECIST 1.1 (solid tumors). […] Patients who had SD or better as their best overall response were classified as having achieved clinical benefit. These criteria must have been met at 1 time point and ≥1 subsequent time point(s) (the first of which was within 28 days of the initial time point). PFS was determined as the time from the first dose of study medication to the date of the first objective documentation of tumor progression or death due to any cause. All treated patients who received ≥1 dose of BMS-986158 were evaluated in the safety population. […] All treated patients with available and sufficient serum or plasma samples for the corresponding analytes were included in the PK analyses. […] ECG parameters were evaluated in a categorical analysis, and linear mixed-effects regression modeling was used to describe the quantitative relationship between ΔQTcF and time-matched serum concentrations of BMS-986158 or its metabolite at a single dose. Descriptive summary statistics, including means and 95% CIs, were calculated using the Clopper-Pearson method for ORR and Kaplan–Meier method for PFS and OS. During dose escalation, an mTPI design targeted a 27% DLT rate to guide escalation decisions and the MTD selection. In the dose-escalation segment, the target enrollment was up to 30 patients per schedule and 3–13 DLT-evaluable patients at a dose level, with an aim to determine the MTD. The totality of the data, including PK, pharmacodynamics, and patient overall safety, including at lower dose levels, was also used to select the RP2D.

[2] = Plasma pharmacokinetics after single dose (C1D1), LC-MS/MS; type: in vivo, human
Procedure: At C1D1 in every dosing schedule cohort, a single dose was administered followed by 168 h (i.e., 7 days) of intensive PK sampling. Following cycle 1, the multiple-dose treatment schedules (described above) began in cycle 2. PK parameters were derived following single dose combined across all schedules and multiple doses at cycle 2 for each schedule. […] PK assessments were evaluated for BMS-986158 and its metabolite using plasma samples at regular intervals. Both the parent and metabolite samples were simultaneously analyzed using a validated liquid chromatography and tandem mass spectrometry assay.
All treated patients who received ≥1 dose of BMS-986158 were evaluated in the safety population. […] All treated patients with available and sufficient serum or plasma samples for the corresponding analytes were included in the PK analyses. […] ECG parameters were evaluated in a categorical analysis, and linear mixed-effects regression modeling was used to describe the quantitative relationship between ΔQTcF and time-matched serum concentrations of BMS-986158 or its metabolite at a single dose.

[3] = Schedule A (5 days on, 2 days off), n = 46
[4] = Schedule B (14 days on, 7 days off), n = 8
[5] = Schedule C (7 days on, 14 days off), n = 29

- Dose proportionality of plasma concentrations ([2]; 0.75–4.5 mg): dose proportional
- half-life ([2]; human, plasma, oral, 0.75 mg, cohort Schedule A, 0.75 mg, n = 4, read-out: Effective T1/2, mean (SD) (converted)): 33.7 h
Structure (SMILES): Cc1nnn(C)c1-c1cnc2c3ccc(C(C)(C)O)cc3n([C@H](c3ccccc3)C3CCOCC3)c2c1 [BMS-986158]
- Patients with clinical benefit ([1]; 4.5-mg dose on schedule A (9/14)): 64%
- OS rate ([1]; 6 months, Schedule A): 52.6%
- OS rate ([1]; 6 months, Schedule C): 48.4%
- OS rate, n (95% CI) ([1]; 6 months, Schedule A (5 days on, 2 days off), n = 46): 52.6%
- OS rate, n (95% CI) ([1]; 6 months, Schedule C (7 days on, 14 days off), n = 29): 48.4%
- OS rate ([1]; 12 months, Schedule A): 34.3%
- OS rate ([1]; 12 months, Schedule C): 30.8%
- OS rate, n (95% CI) ([1]; 12 months, Schedule A (5 days on, 2 days off), n = 46): 34.3%
- OS rate, n (95% CI) ([1]; 12 months, Schedule C (7 days on, 14 days off), n = 29): 30.8%
- PFS rate, range depending on treatment schedule ([1]; 24 weeks): 13.5–42.9%
- PFS rate, n (95% CI) ([1]; 24 weeks, Schedule A (5 days on, 2 days off), n = 46): 18.1%
- PFS rate, n (95% CI) ([1]; 24 weeks, Schedule B (14 days on, 7 days off), n = 8): 42.9%
- PFS rate, n (95% CI) ([1]; 24 weeks, Schedule C (7 days on, 14 days off), n = 29): 13.5%
- PFS rate, range depending on treatment schedule ([1]; 48 weeks): 6.8–14.3%
- PFS rate, n (95% CI) ([1]; 48 weeks, Schedule A (5 days on, 2 days off), n = 46): 10.3%
- PFS rate, n (95% CI) ([1]; 48 weeks, Schedule B (14 days on, 7 days off), n = 8): 14.3%
- PFS rate, n (95% CI) ([1]; 48 weeks, Schedule C (7 days on, 14 days off), n = 29): 6.8%
- Patients with clinical benefit ([1]; NUT carcinoma (4/7)): 57.1%
- Best overall response unable to be determined ([1]; Schedule A): 17.4%
- Stable disease rate ([1]; Schedule A): 26.1%
- Best overall response by investigator: complete response [1, 3]: 0 n (%)
- Best overall response by investigator: partial response [1, 3]: 2 (4.3) ^a n (%)
- Best overall response by investigator: progressive disease [1, 3]: 24 (52.2) n (%)
- Best overall response by investigator: stable disease [1, 3]: 12 (26.1) n (%)
- Best overall response by investigator: unable to determine [1, 3]: 8 (17.4) ^b n (%)
- Median OS (95% CI) [1, 3]: 7.52 (4.17–11.99) months
- Median PFS (95% CI) [1, 3]: 8.29 (7.14–9.71) weeks
- ORR (95% CI) [1, 3]: 2%
- Patients with a partial response ([1]; Schedule A, 4.5-mg starting dose (ovarian cancer, NUT carcinoma)): 2 patients
- Patients achieving clinical benefit ([1]; Schedule A, all doses): 30% and 30.4%
- Best overall response unable to be determined ([1]; Schedule B): 12.5%
- Stable disease rate ([1]; Schedule B): 37.5%
- Best overall response by investigator: complete response [1, 4]: 0 n (%)
- Best overall response by investigator: partial response [1, 4]: 0 n (%)
- Best overall response by investigator: progressive disease [1, 4]: 4 (50.0) n (%)
- Best overall response by investigator: stable disease [1, 4]: 3 (37.5) n (%)
- Best overall response by investigator: unable to determine [1, 4]: 1 (12.5) ^c n (%)
- Median OS (95% CI) [1, 4]: 9.23 (2.79–11.83) months
- Median PFS (95% CI) [1, 4]: 8.43 (5.57–40.14) weeks
- ORR (95% CI) [1, 4]: 0 (0.0–36.9) %
- Best overall response unable to be determined ([1]; Schedule C): 17.2%
- Stable disease rate ([1]; Schedule C): 31.0%
- Best overall response by investigator: complete response [1, 5]: 0 n (%)
- Best overall response by investigator: partial response [1, 5]: 0 n (%)
- Best overall response by investigator: progressive disease [1, 5]: 15 (51.7) n (%)
- Best overall response by investigator: stable disease [1, 5]: 9 (31.0) n (%)
- Best overall response by investigator: unable to determine [1, 5]: 5 (17.2) ^d n (%)
- Median OS (95% CI) [1, 5]: 5.32 (3.52–11.83) months
- Median PFS (95% CI) [1, 5]: 9.00 (7.86–13.29) weeks
- ORR (95% CI) [1, 5]: 0 (0.0–11.9) %
- Patients with SD or better ([1]; across treatment schedules and doses (n = 26)): 31.3%
- Patients with clinical benefit ([1]; adenoid cystic carcinoma (4/4)): 100%
- Complete response ([1]; all schedules): No patients experienced a CR
- Tumor marker CA 125 level after treatment initiation ([1]; one patient, ovarian cancer, 4.5 mg schedule A, 3032 U/mL prior to C1D1): decreased and remained stable; also recorded: decreased and stabilized
- Duration of partial response on study treatment ([1]; one patient, serous papillary ovarian cancer, 4.5 mg schedule A): 155 days
- Reduction in tumor burden ([1]; one patient, serous papillary ovarian cancer, 4.5 mg schedule A, PR at day 170): 35%
- PFS, range depending on treatment schedule ([1]; schedules A, B, C): 8.29–9.00 weeks
- Progressive disease as best response, range across treatment schedules ([1]; schedules A, B, C): 50.0–52.2%
- Patients with clinical benefit ([1]; uveal melanoma (3/5)): 60%
